pIC50: −log10 of the molar value. Where a name gives a salt, the structure may show the parent alone.
How the values were obtained:
[1] = tested on: experimental allergic encephalomyelitis (EAE) in guinea pigs; test: Experimental allergic encephalomyelitis (EAE) in guinea pigs; assay type: in vivo, guinea pig; details: 3 mg/kg orally once daily for 10 days
Excerpt: This method permits the evaluation of the potential of the test compound in preventing the development of an autoimmune disorder leading to demyelination in the guinea pigs which can be equated to multiple sclerosis disease in humans. EAE is a reproducible chronic inflammatory autoimmune disease of the central nervous system in which an animal is immunized with either a homologous or heterologous extract of the whole brain and spinal cord, which contains the basic myelin protein together with Freund's Complete Adjuvant (FCA). A pathological condition would set in during ten to twenty days following immunization, which is characterized by weight loss, abnormal gait, mild to severe ataxia, paraparesis and moribund state leading to death. The potential of the test compounds to prevent this autoimmune condition was evaluated by observing the severity of the disease and mortality in comparison with untreated and hydrocortisone (standard drug) treated animals.
Guinea pigs (200-300 g) were randomly distributed into groups of 10 each after receiving 0.075 ml of it brain and spinal cord extract in FCA intradermally on the back and 0.050 ml intrapedally in one hind paw. Compound 9 of Table 2 was administered orally at 3 mg/kg once daily for 10 days. The standard compound was administered 100 mg/kg p.o. once daily for 10 days. The weights of the animals were noted every day. Eight days after the induction of the disease, the animals were rated regularly for the severity of the disease and mortality was monitored.

[2] = Oral bioavailability in the dog; assay type: in vivo; details: 10 mg/kg oral (vs 1 mg/kg intravenous), plasma
Description: (§1) Since the test compound produced significant activity in the adjuvant arthritic rats and experimental allergic encephalomyelitic guinea pigs when administered orally, the extent of oral bioavailability of this compound was estimated in rats and dogs. Compound 9 of Table 2 was administered intravenously (1 mg/kg) to conscious rats and dogs and blood samples were collected at various time points after administration. Similarly, the test compound was also administered orally (10 mg/kg) to a different set of rats and dogs and blood samples were collected at various time points. The blood samples were extracted and were analyzed by HPLC to obtain the concentration of compound 9 in the plasma. The plasma levels obtained after intravenous and oral administration were plotted against time, areas under the curves were calculated and percent bioavailability were estimated.

IL-1 = IL-1 release inhibition (Table 2); assay type: cell-based, human; details: Homo sapiens; 5 μM; read-out: IL-1 Rel. Inhib.
Description: (§2) 10 ml of human blood were carefully drawn from the antecubital vein using a syringe containing 1 ml of a solution of 3.8% sodium citrate. After dilution with 10 ml PM 16 (Serva, Heidelberg, FRG) and underlayering with 15 ml Lymphoprep® (Molter GmbH), the sample was centrifuged at 400×g for 40 min at 20° C. The mononuclear cells forming a white ring between lymphoprep and plasma were carefully aspirated by a syringe, diluted 1:1 with PM 16 and centrifuged again at 400×g for 10 min. […] was washed with 10 ml RPMI 1640 (Gibco, Berlin, FRG), containing additionally 300 mg/l L-glutamine, 25 mmol/l […] HEPES, 100 μg/ml streptomycin and 100 μg/ml penicillin. Finally, using a Coulter counter IT, the cell suspension was adjusted to 5×10^6 cells/ml. The cells consist of approx. 90% lymphocytes and 10% monocytes.
10 μl DMSO/water (1:10, v/v), containing the test compound, was added to 480 μl of a suspension, containing 5×10^6 mononuclear cells. The synthesis of IL-1 was stimulated by the addition of 10 μl DSMO/water (1:10, v/v), containing 0,5 μg LPS (Salmonella abortus equi, Sigma). After incubation at 37° C. for 18 hours, the samples were cooled to 0° C. and centrifuged for 1 min. in a table centrifuge. 25 μl aliquots of the supernatant were assayed for IL-1 alpha activity using a commercially available 125-J-IL-1-alpha radioimmunoassay Kit (Amersham/UK), and for IL-1 beta in a similar way using the specific test kit. Control experiments were performed as described without test compound, or with cycloheximide as a test compound.

[3] = tested on: adjuvant arthritis in rats; test: Adjuvant-induced arthritis in rats; assay type: in vivo, rat (female Wistar); details: 3, 10, and 30 mg/kg orally once a day, 12 days
[4] = Oral bioavailability in the rat; assay type: in vivo; details: 10 mg/kg oral (vs 1 mg/kg intravenous), plasma
Description: as §1

[5] = tested on: KC1 induced contraction of guinea pig ileum; test: KCl induced contraction of guinea pig ileum (specificity); assay type: cell-based; details: up to 7.11×10^-5 M
Description: (§3) The specificity of leukotriene antagonism was determined by inducing contraction of guinea pig ileum with agonists like histamine, acetylcholine and KC1. Compounds having specific effect against lipoxygenase products induced contraction normally would not show any inhibition of histamine, acetylcholine and KC1 induced contraction.

[6] = tested on: microanaphylactic shock of guinea pigs; test: Inhibition of micro-anaphylactic shock of guinea pigs (egg albumin aerosol); assay type: in vivo, guinea pig; details: 20 mg/kg^-1, i.p. + pretreatment with indomethacin, 10 mg/kg
Description: Guinea pigs of either sex weighing between 300-350 g were sensitized with egg albumin absorbed over Al(OH)3 gel. After 21 days of sensitization, each animal was placed in an air tight perspex chamber and exposed to 0.5% egg albumin aerosol through EEL atomizer. EEL atomizer was operated by connecting it to pressurized air through a water trap and dial type sphygmomanometer at the constant air pressure of 180 mm Hg. The time of onset of asthma in seconds and recovery period in minutes was noted.
Each animal was exposed to egg albumin aerosol at an interval of 15 days to maintain the consistency of the reactivity of animals to the antigen. After 3 such control exposures, animals were subjected to drug treatment. On the day of the experiment one group of Guinea pigs consisting of 10 animals was kept as control exposing them only to 0.5% egg albumin aerosol. […] Fifteen mins. after the administration of the test compound the animals were exposed to 0.5% egg albumin aerosol.

[7] = tested on: Cotton Pellet Granuloma in Rats; test: Inhibition of carrageenin cotton pellet granuloma in rats; assay type: in vivo, rat (Wistar); details: p.o. × 5
Description: The implantation of carrageenin impregnated cotton pellets results in production of large, well-defined granuloma which are easily dissected. The potency of the compounds are assessed by measuring the reduction in granuloma tissue formation.
Cotton wool pellets weighing 40 mg were used for sterilization.
Pellets were dried overnight under a lamp. The pellets in the weight range of 42-44 mg were selected.
Rats (in groups of 6, male or female, Charles River, Wistar, weighing 140-150 g) were anaesthetized with ether. The back was shaved and cleaned; swabbed with alcohol and one centimeter incision was made in the lower midback. A small channel was made bilaterally using a blunt forceps and one cotton pellet placed in each channel. Air from the incision was removed and the wound was stitched. […] Three hours after the administration of the last dose on day 7, animals were sacrificed. The pellets were removed by cutting the skin along the dorsal midline and peeling the skin away from the bodywall in both lateral directions. The pellets were weighed and then placed in drying oven at 140° C. overnight. The dry weights were then recorded and the amount of granuloma was assessed by subtracting the original pellet weight from wet weights and dry weights. The data was evaluated using the difference of left and right weights (cf. Table 4).

[8] = tested on: isolated guinea pig ileum precontracted with leukotrienes; test: Relaxation of leukotriene induced contraction of isolated guinea pig ileum; assay type: cell-based; details: Cavia porcellus
Description: Guinea pigs of either sex weighing 300-350 g were sensitized with a suspension of aluminum hydroxide gel and egg albumin. After 21 days, each animal was exposed to 0.5% egg albumin aerosol in an air tight perspex chamber and only those animals which developed allergic bronchoconstriction were selected for further experiment.
The animals were tested for one week after antigenic exposure and then sacrificed by head blow and cutting carotid arteries. The lung was quickly removed and placed in aerated Tyrode solution kept at 37° C. The lung was cut into uniform strips and each strip was placed in an organ bath containing isolated guinea pig ileum connected to potentiometric recorder through isotonic transducer in the presence of Tyrode solution kept at 37° C. After a stabilizing period of 30 minutes, the reactivity of ileum to histamine was confirmed by challenging it with 100 ng-200 ng/ml of histamine. The perfusion fluid was then replaced by Tyrode solution containing Atropine (10^-7 M), Mepyramine maleate (10^-7 M) and methylsergide (10^-7 M). Three minutes later, lung strip was challenged by egg albumin (25 μg/ml) and release of leukotrienes was monitored in terms of slow contraction of ileum. The ileum was allowed to contract for 10-15 minutes when a plateau was achieved. The test compound (compound 4 of Table 1) was then added to observe the relaxation.
as §3

IL-1 alpha = test: Inhibition of LPS stimulated IL-1 alpha release from human mononuclear cells; assay type: cell-based; details: 18 hours, 37° C., read-out: Approx. IC50 (LPS stimulated IL-1 alpha)
Description: as §2
10 μl DMSO/water (1:10, v/v), containing the test compound, was added to 480 μl of a suspension, containing 5×10^6 mononuclear cells. The synthesis of IL-1 was stimulated by the addition of 10 μl DSMO/water (1:10, v/v), containing 0,5 μg LPS (Salmonella abortus equi, Sigma). After incubation at 37° C. for 18 hours, the samples were cooled to 0° C. and centrifuged for 1 min. in a table centrifuge. […]

[9] = tested on: histamine induced contraction of guinea pig ileum; test: Histamine induced contraction of guinea pig ileum (specificity); assay type: cell-based; details: up to 7.11×10^-5 M
Description: as §3

For `COc1cc(OC)c([C@@H]2CCCC[C@H]2OC(=O)[C@H](C)N)c(O)c1C(=O)/C=C/c1cccc(Br)c1` [Compound 9 of Table 2, trans-(-)-2-[4,6-dimethoxy-2-hydroxy-3-(3-(3-bromophenyl)prop-2-(E)-enoyl)phenyl]cyclohexyl-2-(S)-amino propanoate hydrochloride], the “reduction in the mortality rate” value [1] was 45%, the “clinical symptoms (clinical grading)” value ([1]; compared to untreated group) was “significantly reduced” and the bioavailability [2] was 73%. For the same molecule, the inhibition at 5 µM (IL-1) was 55%, the “reduction in the uninjected paw volumes” value [3] was “significant and dose dependent reduction” and the bioavailability [4] was 46%.

With `COc1cc(OC)c([C@@H]2CCCC[C@H]2O)c(O)c1C(=O)/C=C/c1ccc(Cl)cc1` (relative stereo) [Compound 4 of Table 1, trans-(±)-2-[4,6-Dimethoxy-2-hydroxy-3-(3-(4-chlorophenyl)prop-2-(E)-enoyl)]phenylcyclohexanol] the “Effect on KC1 induced contraction” value [5] was “No effect”, the Recovery period ([6]; control group 37 + 3.4) was 77.6 min and the Onset Time ([6]; control group 75 + 8.7) was 149 s. For the same molecule, the “% Inhibition of granuloma, Dry wt.” value ([7]; 10 mg/kg) was 35.6%, the “% Inhibition of granuloma, Wet wt.” value ([7]; 10 mg/kg) was 21% and the “% Inhibition of granuloma, Dry wt.” value ([7]; 20 mg/kg) was 89.0%. For the same molecule, the “% Inhibition of granuloma, Wet wt.” value ([7]; 20 mg/kg) was 54%, the “% Inhibition of granuloma, Dry wt.” value ([7]; 30 mg/kg) was 82.8% and the “% Inhibition of granuloma, Wet wt.” value ([7]; 30 mg/kg) was 64%. For the same molecule, the inhibition at 1.2 µM ([8]; Conc. 1.2 × 10^-6 M) was 36.8%, the inhibition at 1.68 µM ([8]; Conc. 1.68 × 10^-6 M) was 50.5% and the inhibition at 2.4 µM ([8]; Conc. 2.4 × 10^-6 M) was 62.4%. The inhibition at 7.2 µM ([8]; Conc. 7.2 × 10^-6 M) was 68%, the pIC50 ([8]; relaxation of leukotriene precontracted ileum, read-out: App. IC50) was 5.77 and the pIC50 (IL-1 alpha) was 6.52 to 6.70. The “Effect on histamine induced contraction” value [9] was “No effect”.

Reference: US6159988A, “Arylcycloalkyl derivatives, their production and their use” (Hoeschst Aktiengesellschaft, priority 1992, dated 2000)
